Data: patent US20250002450A1, “CATIONIC STEROID COMPOUNDS, METHOD OF OBTAINING THEREOF, FORMULATIONS COMPRISING THEREOF AND THEIR USES” (UNIVERSIDADE DO PORTO, priority 2021, published 2025)
Values after ≈ are worked out from the molar mass of the structure shown.

Tests used:
[1] = test system: Escherichia coli ATCC 25922; test: Antibacterial MIC/MBC (broth microdilution); assay type: cell-based; conditions: Escherichia coli ATCC 25922
Excerpt: Twelve reference bacterial strains and nine MDR clinically relevant bacterial strains were used in this study. Gram-negative bacteria comprised reference strains E. coli ATCC 25922, K. pneumoniae ATCC 13883, Salmonella enterica serovar Typhimurium CECT 443, P. aeruginosa ATCC 27853, A. baumannii ATCC 19606, C. jejuni ATCC 33560 (ATCC—American Type Culture Collection; CECT—Colección Espanola de Cultivos Tipo); clinical isolates E. coli SA/2, an extended-spectrum β-lactamase (ESBL)-producing strain and P. aeruginosa 33b, a pan-drug-resistant isolate; and animal isolates C. jejuni P5/4, a ciprofloxacin-resistant strain, C. jejuni 4432, C. jejuni 4433, C. jejuni 4448, and E. coli 2252, a COL-resistant strain [42]. Gram-positive strains included S. aureus ATCC 29213, E. faecalis ATCC 29212, S. pyogenes ATCC 19615, and environmental isolates methicillin-resistant S. aureus (MRSA) 66/1 [43], and VAN-resistant enterococci (VRE) E. faecalis B3/101 [44]. Gram-negative fish pathogens Yersinia ruckeri ATCC 29473, Listonella anguillarum ATCC 1924, and Tenacibaculum maritimum ATCC 43397 were also included.
Strains were kept in Trypto-Casein Soy agar (TSA—Biokar Diagnostics, Allone, Beauvais, France) slants and, before each assay, were sub-cultured in Mueller-Hinton agar (MHA—Biokar Diagnostics, Allone, Beauvais, France). Y. ruckeri ATCC 29473 and L. anguillarum ATCC 1924 were kept in Nutrient Agar (Condalab, Madrid, Spain) and T. maritimum ATCC 43397 was kept in TMM agar (Condalab, Madrid, Spain), and were sub-cultured in the respective culture media before each assay. For S. pyogenes ATCC 19615, CAMHB was supplemented with 3.75% lysed horse blood (LBH—Oxoid, Basingstoke, England), whereas for C. jejuni it was supplemented with 2.5% LHB. Colony-forming unit counts of the inoculum were conducted to determine the initial inoculum size (which should be approximately 5×10^5 CFU/mL). Sterility and growth controls were included in each assay. The 96-well U-shaped untreated polystyrene microtiter plates were incubated for 20 h at 37 degrees C. (42 degrees C. for C. jejuni, in a microaerophilic atmosphere) and the minimal inhibitory concentration (MIC) was determined as the lowest concentration of compound that prevented visible growth. The minimal bactericidal concentration (MBC) was determined by spreading 100 μL of the content of the wells with no visible growth on MH plates. The MBC was determined as the lowest concentration of compound that killed 99.9% of the initial inoculum after overnight incubation at 37 degrees C. Two independent assays were performed for reference and MDR strains.
An initial screening of the antibacterial activity of the compounds was performed by the Kirby-Bauer disk diffusion method, as recommended by the Clinical and Laboratory Standards Institute (CLSI). Briefly, sterile 6 mm blank paper disks (Oxoid, Basingstoke, England) impregnated with 15 μg of each compound were placed on inoculated MH agar plates. A blank disk with dimethylsulfoxide (DMSO) was used as a negative control. MH inoculated plates were incubated for 18-20 h at 37 degrees C. At the end of incubation, the inhibition halos where measured. The MIC was used to determine the antibacterial activity of each compound, in accordance with the recommendations of the CLSI. Two-fold serial dilutions of the compounds were prepared in Mueller-Hinton Broth 2 (MHB2—Sigma-Aldrich, St. Louis, MO, USA) within the concentration range of 0.062-64 μg/mL. CTX ranging between 0.031-16 μg/mL was used as a control. Sterility and growth controls were included in each assay. Purity checks and colony counts of the inoculum suspensions were also performed in order to ensure that the final inoculum density closely approximates the intended number (5×10^5 CFU/mL). The MIC was determined as the lowest concentration of compound that inhibited growth of the bacteria. The MBC was assessed by spreading 10 μL of culture collected from wells showing no visible growth on MH agar plates. […]

E. coli ATCC 25922 [2] = test: Membrane integrity, propidium iodide influx assay (SYTO 9/PI); assay type: cell-based, Escherichia coli; conditions: 4 μg/mL; 0, 1, 18 h
Experimental: The influx of PI in E. coli ATCC 25922 treated with 2×MIC, MIC, and ½×MIC of compound 1 was evaluated using a commercial kit that includes fluorescent nucleic acid stains SYTO® 9 and PI. SYTO® 9 can enter cells with intact or damaged membranes, generally labeling both, whereas PI only penetrates cells with severe membrane lesions, causing a reduction in SYTO® 9 fluorescence when both dyes are present.
In these assays, COL and AMP were used as controls. COL is a polycationic antimicrobial peptide with a complex mode of action, that ultimately solubilizes the bacterial cell membrane. AMP is an aminopenicillin that inhibits cell wall synthesis by inhibiting penicillin-binding proteins. E. coli ATCC 25922 cells were treated with compound 1 and, at several time-points (0, 1, and 18 h), samples were taken, and SYTO® 9/PI ratio was determined ([FIG. 4]). The entrance of PI is reflected in a reduction of this ratio.
Briefly, E. coli ATCC 25922 colonies from overnight cultures in MHA were suspended in CAMHB to prepare an inoculum with a final concentration of approximately 5×10^5 CFU/mL. The tubes were incubated overnight at 36° C. in a water bath with shaking. Following this, the cell suspensions were centrifuged at 3500 rpm for 15 min, the supernatant was removed, the cells were carefully resuspended in fresh CAMHB and the suspension was adjusted to 0.5 McFarland. An aliquot of this suspension was then added to each tube of CAMHB alone (control) or CAMHB plus an appropriate amount of test compound. […] The tubes were incubated at 36 degrees C. in a water bath with shaking and, at pre-established time points (0, 1, and 18 h), […] aliquots were retrieved for further analysis. After the exposure time, cells were washed two times, resuspended in 0.85% NaCl, and 100 μL of each cell suspension was distributed in the wells of a microtiter plate, in triplicate. 100 μL of a mixture of 30 μM PI and 5 μM SYTO® 9 prepared in ultrapure water were added to each well, and the plates were incubated at room temperature, in the dark, for 15 min. The fluorescence intensity of the stained bacterial suspensions was determined using a microplate reader (Synergy HT, BioTek Instruments, Winooski, VT, USA) by two consecutive measurements with excitation wavelength 485 nm and emission wavelength 528 nm (SYTO® 9) or 590 nm (PI). Data were analyzed by subtracting background fluorescence from each sample, dividing the fluorescence intensity of SYTO® 9 by fluorescence intensity of PI, and the results are presented as a percentage of control. Three independent assays were performed in triplicate for each experimental condition.

E. coli ATCC 25922 [3] = test: Enzymatic/metabolic activity, MTT assay; assay type: cell-based, Escherichia coli; conditions: 4 μg/mL; 0, 1, 18 h
Experimental: To determine whether compound 1 could also affect enzymatic activity, 2-(4,5-dimethyl-2-thiazolyl)-3,5-diphenyl-2H-tetrazolium bromide (MTT) assay was performed. This assay can also be used as an indirect measure of cellular viability, as tetrazolium salts are reduced to purple formazan by metabolically active cells. E. coli ATCC 25922 cells were treated with compound 1 and COL and AMP were used as controls, as described above. Measurements were made at 0, 1, and 18 h.
Enzymatic activity was evaluated by the MTT assay, as previously described, with some modifications. Cell suspensions of E. coli ATCC 25922 were prepared as described above, as well as test conditions and controls. At each time point (0, 1, and 18 h), 500 μL aliquots were collected, centrifuged at 3500 rpm for 10 min, the supernatant was removed, and 300 μL of MTT solution (0.5 mg/mL in CAMHB, at 36 degrees C.) (Thiazolyl Blue Tetrazolium Bromide, Alfa Aesar, Ward Hill, MA, USA) were added. After a 30 min incubation at 36° C., the insoluble formazan product resulting from the conversion of MTT by metabolically active cells was solubilized with 300 μL of DMSO. 100 μL of each sample were transferred in duplicate to the wells of a microtiter plate and the extent of the reduction of MTT to formazan was quantified by measuring the absorbance at 570 nm (Thermo Scientific Multiskan® EX, Thermo Fisher Scientific, Waltham, MA, USA). Three independent assays were performed in duplicate, and results are expressed as a percentage of untreated control.

MIC [1]: 4 mg/L (≈ 11.4 µM)
SMILES: CC1(C)S[C@@H]2[C@H](NC(=O)[C@H](N)c3ccccc3)C(=O)N2[C@H]1C(=O)O [AMP]
reduction in SYTO 9/PI ratio vs untreated control (E. coli ATCC 25922 [2]): not | metabolic activity (MTT) vs untreated control (E. coli ATCC 25922 [3]): did not affect the metabolic activity
